Test results taken from the CheMixHub viscosity set.

Assay: xn = mol fraction of the nth substance listed

C1CCCC1 + CCCCO
101 kPa
Conditions	viscosity [mPa·s]
298.15 K, x1 = 0.0281	2.401
298.15 K, x1 = 0.0729	2.23
298.15 K, x1 = 0.1366	1.972
298.15 K, x1 = 0.2131	1.703
298.15 K, x1 = 0.268	1.533
298.15 K, x1 = 0.2928	1.448
298.15 K, x1 = 0.3216	1.358
298.15 K, x1 = 0.3809	1.205
298.15 K, x1 = 0.4426	1.035
298.15 K, x1 = 0.5285	0.8835
298.15 K, x1 = 0.5981	0.7551
298.15 K, x1 = 0.6858	0.6361
298.15 K, x1 = 0.7617	0.5622
298.15 K, x1 = 0.7948	0.5316
298.15 K, x1 = 0.8094	0.5193
298.15 K, x1 = 0.8797	0.4629
308.15 K, x1 = 0.004	1.958
308.15 K, x1 = 0.1227	1.614
308.15 K, x1 = 0.1427	1.583
308.15 K, x1 = 0.1774	1.556
308.15 K, x1 = 0.2185	1.381
308.15 K, x1 = 0.2585	1.358
308.15 K, x1 = 0.3367	1.164
308.15 K, x1 = 0.421	1.009
308.15 K, x1 = 0.494	0.8822
308.15 K, x1 = 0.5979	0.6995
308.15 K, x1 = 0.7214	0.5435
308.15 K, x1 = 0.8382	0.4404
308.15 K, x1 = 0.9315	0.3813
308.15 K, x1 = 0.9658	0.3641
308.15 K, x1 = 0.9781	0.3599

NCCO + CCO
viscosity [mPa·s], 100 kPa
Conditions	x1 = 0.1	x1 = 0.2	x1 = 0.3	x1 = 0.4	x1 = 0.5	x1 = 0.6	x1 = 0.7	x1 = 0.8	x1 = 0.9
303.15 K	1.33	1.73	2.3	3.05	–	5.37	7.03	–	11.6
313.15 K	1.11	1.42	1.83	2.34	3.05	3.93	5.03	6.32	7.87
323.15 K	0.967	1.19	1.47	1.85	2.34	2.95	3.7	4.54	5.57

OCc1ccccc1 + Clc1ccccc1
303.15 K, 101 kPa
Conditions	viscosity [mPa·s]
x1 = 0.1372	0.9498
x1 = 0.2844	1.158
x1 = 0.3371	1.26
x1 = 0.4255	1.459
x1 = 0.5741	1.907
x1 = 0.6507	2.212
x1 = 0.7556	2.713
x1 = 0.8031	2.982
x1 = 0.9053	3.662

CCCCCCCCCCCCCC[P+](CCCCCC)(CCCCCC)CCCCCC.[O-]c1ccccc1 + O=C=O
Conditions	viscosity [mPa·s]
298.15 K, 100 kPa, x2 = 0.5	368

Nc1ccccc1[N+](=O)[O-] + ClC(Cl)(Cl)Cl
viscosity [mPa·s], 101 kPa
Conditions	303.15 K	308.15 K	313.15 K	318.15 K	323.15 K
x1 = 0.02174	0.8952	0.8298	0.7841	0.7321	0.6886
x1 = 0.08489	–	1	0.9361	0.874	0.8093

CCC(=O)CC + CCCCN
303.15 K, 101.33 kPa
Conditions	viscosity [mPa·s]
x2 = 0.1145	0.519
x2 = 0.2006	0.59
x2 = 0.3211	0.678
x2 = 0.417	0.735
x2 = 0.5421	0.784
x2 = 0.7264	0.752
x2 = 0.8234	0.681
x2 = 0.8922	0.62

CC(=O)OC(C)=O + O
viscosity [mPa·s], 101 kPa
Conditions	x1 = 0.2	x1 = 0.4	x1 = 0.45	x1 = 0.5	x1 = 0.6	x1 = 0.8
298.15 K	2.189	1.852	1.497	1.193	1.059	0.936
313.15 K	1.484	1.294	1.104	0.921	0.835	0.735

OCc1ccccc1 + CC(C)=O
viscosity [mPa·s], 101 kPa
Conditions	x1 = 0.2007	x1 = 0.2986	x1 = 0.4007	x1 = 0.5002	x1 = 0.7013	x1 = 0.9003
303.15 K	0.506	0.651	0.894	1.204	2.122	3.544
308.15 K	0.495	0.632	0.861	1.11	1.857	3.118
313.15 K	0.479	0.603	0.807	1.054	1.74	2.826

c1ccc(-c2ccccc2)cc1 + c1ccccc1
298.15 K, 101 kPa
Conditions	viscosity [mPa·s]
x1 = 0.1006	0.7585
x1 = 0.1824	0.9014
x1 = 0.3638	1.298

C=CCc1ccc2c(c1)OCO2 + CCCCCOC(C)=O
298.15 K, 101 kPa
Conditions	viscosity [mPa·s]
x1 = 0.053	0.833
x1 = 0.232	1.01

c1ccc(-c2ccccc2)cc1 + CCCCCOC(C)=O
298.15 K, 101 kPa
Conditions	viscosity [mPa·s]
x1 = 0.0249	0.803
x1 = 0.0367	0.8121

CCCCC(CC)C(=O)OCC(COC(=O)C(CC)CCCC)(COC(=O)C(CC)CCCC)COC(=O)C(CC)CCCC (configuration not stated) + CCCCCCC(=O)OCC(COC(=O)CCCCCC)(COC(=O)CCCCCC)COC(=O)CCCCCC
100 kPa, x1 = 0.667
Conditions	viscosity [mPa·s]
303.15 K	51.7
313.15 K	32.6
323.15 K	20.7

COC(=O)CCCCC(=O)OC + CCC(C)=O
100 kPa
Conditions	viscosity [mPa·s]
308.15 K, x1 = 0.2002	0.5865
318.15 K, x1 = 0.3002	0.6465
323.15 K, x1 = 0.4004	0.7425

C1CCCC1 + CCC(C)(C)O
viscosity [mPa·s], 101 kPa
Conditions	298.15 K	308.15 K
x1 = 0.0429	2.979	1.779
x1 = 0.067	2.668	1.62
x1 = 0.1245	2.256	1.413
x1 = 0.2079	1.793	1.151
x1 = 0.3116	1.297	0.9115
x1 = 0.3957	1.073	0.7831
x1 = 0.5173	0.8412	0.6798
x1 = 0.5982	0.7558	0.5719
x1 = 0.683	0.6454	0.5099
x1 = 0.8095	0.508	0.4267
x1 = 0.8844	0.4827	0.4072
x1 = 0.9127	0.4379	0.3726
x1 = 0.944	0.4169	0.3547
